Here are results for three compounds from ChEMBL document CHEMBL4732086, “Targeting nuclear protein TDP-43 by cell division cycle kinase 7 inhibitors: A new therapeutic approach for amyotrophic lateral sclerosis” (Eur J Med Chem, 2021).

The target of assay [1] is Tyrosine-protein kinase ABL1 (Homo sapiens) (UniProt P00519). As to the kind of experiment: Inhibition of recombinant full length human His-tagged ABL1 expressed in baculovirus expression system using tyrosine-2 peptide as substrate at 10 uM incubated for 60 mins in presence of ATP by Z'-LYTE assay.
For assay [2], the target named is T1, Aurora kinase A (Homo sapiens) (UniProt O14965).
T1 sequence (whole entry): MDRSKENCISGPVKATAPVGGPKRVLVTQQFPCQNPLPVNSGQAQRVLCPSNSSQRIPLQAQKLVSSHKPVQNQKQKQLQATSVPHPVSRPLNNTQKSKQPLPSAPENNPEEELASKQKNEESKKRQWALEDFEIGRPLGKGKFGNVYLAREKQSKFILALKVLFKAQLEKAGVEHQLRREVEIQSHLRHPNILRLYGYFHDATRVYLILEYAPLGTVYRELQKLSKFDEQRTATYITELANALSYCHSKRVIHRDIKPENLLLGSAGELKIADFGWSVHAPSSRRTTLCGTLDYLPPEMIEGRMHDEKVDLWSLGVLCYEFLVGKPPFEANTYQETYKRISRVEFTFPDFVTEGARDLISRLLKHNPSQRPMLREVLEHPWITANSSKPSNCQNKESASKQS
Nature of the assay: Inhibition of recombinant human full length AURKA expressed in baculovirus expression system using Ser/Thr-01 peptide as substrate at 10 uM after 1 hr in presence of ATP by Z'LYTE assay.

Assay [3] addresses Aurora kinase B (Homo sapiens) (UniProt Q96GD4). Nature of the assay: Inhibition of recombinant full length His-tagged human AURKB expressed in baculovirus expression system using Ser/Thr-01 peptide as substrate at 10 uM incubated for 60 mins in presence of ATP by Z'-LYTE assay.
The target in assay [4] is CDC7/DBF4 (Cell division cycle 7-related protein kinase/Activator of S phase kinase) (Homo sapiens) (UniProt Q9UBU7+O00311). Nature of the assay: Competitive inhibition of recombinant human full length N-terminal GST tagged CDC7/Dbf4 expressed in baculovirus infected Sf9 insect cells assessed as inhibition of substrate phosphorylation using PDKtide as substrate at 5 to 10 uM measured after 60 mins by ATP assay. The conditions noted are these: dose 5-10 µM.

Assay [5] concerns the target CDK2/Cyclin A2 (Homo sapiens) (UniProt P24941+P20248). As to the kind of experiment: Inhibition of recombinant full length human His-tagged CDK2/Cyclin A expressed in baculovirus expression system using serine/threonine-12 peptide as substrate at 10 uM incubated for 60 mins in presence of ATP by Z'-LYTE assay.
Assay [6] has as its target Casein kinase I isoform alpha (Homo sapiens) (UniProt P48729). As to the kind of experiment: Inhibition of human CSNK1A1 expressed in baculovirus expression system using serine/threonine-11 peptide as substrate at 10 uM incubated for 60 mins in presence of ATP by Z'-LYTE assay.
For assay [7], the target named is T2, Dual specificity tyrosine-phosphorylation-regulated kinase 3 (Homo sapiens) (UniProt O43781).
T2 sequence (whole entry): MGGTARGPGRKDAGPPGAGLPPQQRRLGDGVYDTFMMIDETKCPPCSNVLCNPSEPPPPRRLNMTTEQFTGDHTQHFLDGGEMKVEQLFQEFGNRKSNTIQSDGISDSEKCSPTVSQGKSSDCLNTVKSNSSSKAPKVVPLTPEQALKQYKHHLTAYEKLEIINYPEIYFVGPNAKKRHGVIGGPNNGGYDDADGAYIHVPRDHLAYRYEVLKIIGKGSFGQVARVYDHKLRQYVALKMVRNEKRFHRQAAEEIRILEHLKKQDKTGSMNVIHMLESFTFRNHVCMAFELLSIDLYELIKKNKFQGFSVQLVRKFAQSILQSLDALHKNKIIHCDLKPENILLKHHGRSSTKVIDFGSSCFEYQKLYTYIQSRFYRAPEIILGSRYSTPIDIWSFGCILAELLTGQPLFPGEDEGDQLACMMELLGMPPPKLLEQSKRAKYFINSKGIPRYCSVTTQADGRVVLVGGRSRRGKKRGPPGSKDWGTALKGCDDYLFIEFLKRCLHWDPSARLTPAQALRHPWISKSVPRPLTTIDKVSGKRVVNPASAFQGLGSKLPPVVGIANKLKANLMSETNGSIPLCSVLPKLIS
Nature of the assay: Inhibition of recombinant human full length GST-tagged DYRK3 expressed in baculovirus expression system using serine/threonine-18 peptide as substrate at 10 uM incubated for 60 mins in presence of ATP by Z'-LYTE assay.

For assay [8], the target named is Tyrosine-protein kinase Fyn (Homo sapiens) (UniProt P06241). As to the kind of experiment: Inhibition of recombinant human His-tagged Fyn expressed in baculovirus expression system using Tyr 02 peptide as substrate at 10 uM incubated for 60 mins in presence of ATP by Z'-LYTE assay.
Assay [9] addresses Glycogen synthase kinase-3 alpha (Homo sapiens) (UniProt P49840). As to the kind of experiment: Inhibition of recombinant human full length GST-tagged GSK3A expressed in baculovirus expression system using serine/threonine-09 peptide as substrate at 10 uM incubated for 60 mins in presence of ATP by Z'-LYTE assay.
Assay [10] concerns the target Homeodomain-interacting protein kinase 1 (Homo sapiens) (UniProt Q86Z02). Nature of the assay: Inhibition of recombinant human full length GST-tagged HIPK1 expressed in baculovirus expression system using serine/threonine-09 peptide as substrate at 10 uM incubated for 60 mins in presence of ATP by Z'-LYTE assay.
The target in assay [11] is T3, Mitogen-activated protein kinase 12 (Homo sapiens) (UniProt P53778).
T3 sequence (whole entry): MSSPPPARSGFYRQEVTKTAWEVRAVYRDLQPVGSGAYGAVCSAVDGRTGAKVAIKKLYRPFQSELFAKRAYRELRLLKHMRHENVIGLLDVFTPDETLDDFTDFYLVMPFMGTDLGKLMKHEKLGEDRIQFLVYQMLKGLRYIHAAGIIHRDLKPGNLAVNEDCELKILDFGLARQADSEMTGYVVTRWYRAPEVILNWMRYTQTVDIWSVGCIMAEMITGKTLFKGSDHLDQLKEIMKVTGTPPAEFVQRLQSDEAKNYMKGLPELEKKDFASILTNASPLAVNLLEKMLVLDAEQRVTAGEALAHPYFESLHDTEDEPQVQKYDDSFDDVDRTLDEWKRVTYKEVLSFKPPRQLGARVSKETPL
Nature of the assay: Inhibition of recombinant human full length His-tagged MAPK12 expressed in baculovirus expression system using serine/threonine-03 peptide as substrate at 10 uM incubated for 60 mins in presence of ATP by Z'-LYTE assay.

The target of assay [12] is Serine/threonine-protein kinase pim-1 (Homo sapiens) (UniProt P11309). Nature of the assay: Inhibition of recombinant human HIS-tagged PIM1 expressed in baculovirus expression system using serine/threonine-07 peptide as substrate at 10 uM by Z'-LYTE assay. The conditions noted are these: time 60.0 min.
The target in assay [13] is Rho-associated protein kinase 1 (Homo sapiens) (UniProt Q13464). Nature of the assay: Inhibition of recombinant human GST-tagged ROCK1 expressed in baculovirus expression system using serine/threonine-07 peptide as substrate at 10 uM by Z'-LYTE assay. Conditions: time 60.0 min.

Structures are written as SMILES. Activity calls are given as the source filed them. No cut-off for these calls is given here.

`Clc1cccc(CSc2ncnc3[nH]cnc23)c1`: the inhibition entry in assay [1], in assay [2], in assay [3], in assay [5], in assay [6] and in [7] was “inactive” throughout. Besides, the inhibition entry in assay [8], in [9], in assay [10], in assay [11], in [12] and in [13] was “inactive” throughout. In addition, the inhibition result in [4] is “Active”.
Take `Brc1ccccc1CSc1ncnc2[nH]cnc12`: the inhibition entry in assay [1], in assay [2], in assay [3], in assay [5], in [6] and in assay [7] was “inactive” throughout. The inhibition result in [8], in [9], in [10], in [11], in assay [12] and in [13] was “inactive” each time. The inhibition result in assay [4] is “Active”.
Regarding `c1ccc(CSc2ncnc3[nH]cnc23)cc1`, the inhibition result in assay [1], in [2], in [3], in assay [5], in [6] and in [7] was “inactive” each time. The inhibition result in assay [8], in assay [9], in assay [10], in assay [11], in assay [12] and in assay [13] was “inactive” throughout. Also, the inhibition entry in assay [4] is “Active”.
